Laboratory results published in patent publication US11377442B2, “Small molecule agonists and antagonists of NR2F6 activity” (ZANDER THERAPEUTICS, INC., priority 2016, dated 2022).
Like-named read-outs stand apart in the source and are kept apart here.

Key:
Assay type in all cases: cell-based
[1] = biological target: T1, NR2F6 (Homo sapiens, UniProt P10588); experiment: NR2F6 agonist screening, Firefly signal cmpd/DMSO
T1 construct: expressed in transfected cells; also transient transfection
T1 sequence (P10588 1-404): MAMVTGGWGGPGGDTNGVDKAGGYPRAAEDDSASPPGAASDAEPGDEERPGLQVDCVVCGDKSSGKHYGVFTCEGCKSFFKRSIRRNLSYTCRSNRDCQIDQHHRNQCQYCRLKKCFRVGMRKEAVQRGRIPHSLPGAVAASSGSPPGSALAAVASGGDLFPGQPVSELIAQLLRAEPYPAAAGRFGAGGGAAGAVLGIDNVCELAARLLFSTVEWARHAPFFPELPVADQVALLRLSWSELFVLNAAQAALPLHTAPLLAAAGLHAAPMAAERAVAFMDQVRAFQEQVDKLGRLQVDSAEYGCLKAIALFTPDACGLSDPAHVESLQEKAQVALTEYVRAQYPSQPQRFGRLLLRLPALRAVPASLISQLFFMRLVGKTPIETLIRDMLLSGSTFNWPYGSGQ

[2] = biological target: T2, NR2F6 LBD (Homo sapiens, UniProt P10588); experiment: NR2F6 LBD transient transfection; details: LBD
T2 construct: expressed in transfected cells
T2 sequence (P10588 165-393 limits assumed): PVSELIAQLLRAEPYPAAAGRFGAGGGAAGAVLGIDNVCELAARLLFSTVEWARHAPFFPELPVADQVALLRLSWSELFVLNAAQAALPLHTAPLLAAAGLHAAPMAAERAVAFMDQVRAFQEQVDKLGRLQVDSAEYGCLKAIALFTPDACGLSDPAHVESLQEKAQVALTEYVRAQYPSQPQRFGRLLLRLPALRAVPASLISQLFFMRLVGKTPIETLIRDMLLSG
In short: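 LBD-transfected cells treated at 40, 10, 2 and 0.5 μM (4 replicates); cytotoxicity measured in parallel, normalized to DMSO (0%) and zero signal (100%). Higher concentrations excluded where signal loss reflected toxicity.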

[3] = system: HEK293 pGL4; experiment: Firefly_pGL signal, cmpd/DMSO (pGL4 control cells); details: Homo sapiens
[4] = system: Renilla; experiment: Renilla signal in NR2F6 agonist screening, cmpd/DMSO; details: Renilla, F4
[5] = read-out: Renilla, F4, cmpd/DMSO (mean)
[6] = 1% FBS, read-out: Renilla, F4, 1% FBS, cmpd/DMSO (mean)
[7] = 10% FBS, read-out: Renilla, F4, 10% FBS, cmpd/DMSO (mean)

Firefly F4, cmpd/DMSO (mean) ([1]; 0.5 uM): 1.0
Firefly F4, cmpd/DMSO (mean) ([1]; 2 uM): 1.8
Firefly F4, cmpd/DMSO (mean) ([1]; 10 uM): 4.5
Firefly F4, cmpd/DMSO (mean) ([1]; 40 uM): 2.3
F4, Firefly/Renilla for S/B(F4) > 3 ([1]; 1% FBS, 10 uM): 2.0
Firefly, F4/pGL4 for S/B(F4) > 3 ([1]; 1% FBS, 10 uM): 1.6
F4, Firefly/Renilla for S/B(F4) > 3 ([1]; 10% FBS, 40 uM): 3.0
Firefly, F4/pGL4 for S/B(F4) > 3 ([1]; 10% FBS, 40 uM): 2.1
Firefly, F4, 1% FBS, cmpd/DMSO (mean) ([1]; 1% FBS, 0.5 uM): 0.7
Firefly, F4, 1% FBS, cmpd/DMSO (mean) ([1]; 1% FBS, 2 uM): 1.5
Firefly, F4, 1% FBS, cmpd/DMSO (mean) ([1]; 1% FBS, 10 uM): 3.1
Firefly, F4, 1% FBS, cmpd/DMSO (mean) ([1]; 1% FBS, 40 uM): 0.6
Firefly, F4, 10% FBS, cmpd/DMSO (mean) ([1]; 10% FBS, 0.5 uM): 1.4
Firefly, F4, 10% FBS, cmpd/DMSO (mean) ([1]; 10% FBS, 2 uM): 1.0
Firefly, F4, 10% FBS, cmpd/DMSO (mean) ([1]; 10% FBS, 10 uM): 2.9
Firefly, F4, 10% FBS, cmpd/DMSO (mean) ([1]; 10% FBS, 40 uM): 8.3
Firefly LBD, cmpd/DMSO (mean) ([2]; 0.5 uM): 1.6
Firefly LBD, cmpd/DMSO (mean) ([2]; 2 uM): 1.5
Firefly LBD, cmpd/DMSO (mean) ([2]; 10 uM): 2.9
Firefly LBD, cmpd/DMSO (mean) ([2]; 40 uM): 2.1
SMILES: COCCCN[C@H]1CS(=O)(=O)C[C@@H]1S(=O)(=O)c1ccc(Cl)cc1 [Compound D126]
fold induction at 0.5 µM ([3]; HEK293, 0.5 uM, pGL4, read-out: Firefly pGL4, cmpd/DMSO (mean)): 1.2
fold induction at 2 µM ([3]; HEK293, 2 uM, pGL4, read-out: Firefly pGL4, cmpd/DMSO (mean)): 1.2
fold induction at 10 µM ([3]; HEK293, 10 uM, pGL4, read-out: Firefly pGL4, cmpd/DMSO (mean)): 3
fold induction at 40 µM ([3]; HEK293, 40 uM, pGL4, read-out: Firefly pGL4, cmpd/DMSO (mean)): 0.8
fold induction at 0.5 µM ([3]; HEK293, pGL4, 1% FBS, 0.5 uM, read-out: Firefly, pGL4, 1% FBS, cmpd/DMSO (mean)): 1.4
fold induction at 2 µM ([3]; HEK293, pGL4, 1% FBS, 2 uM, read-out: Firefly, pGL4, 1% FBS, cmpd/DMSO (mean)): 1.8
fold induction at 10 µM ([3]; HEK293, pGL4, 1% FBS, 10 uM, read-out: Firefly, pGL4, 1% FBS, cmpd/DMSO (mean)): 2
fold induction at 40 µM ([3]; HEK293, pGL4, 1% FBS, 40 uM, read-out: Firefly, pGL4, 1% FBS, cmpd/DMSO (mean)): 1.6
fold induction at 0.5 µM ([3]; HEK293, pGL4, 10% FBS, 0.5 uM, read-out: Firefly, pGL4, 10% FBS, cmpd/DMSO (mean)): 1.1
fold induction at 2 µM ([3]; HEK293, pGL4, 10% FBS, 2 uM, read-out: Firefly, pGL4, 10% FBS, cmpd/DMSO (mean)): 1.1
fold induction at 10 µM ([3]; HEK293, pGL4, 10% FBS, 10 uM, read-out: Firefly, pGL4, 10% FBS, cmpd/DMSO (mean)): 1.8
fold induction at 40 µM ([3]; HEK293, pGL4, 10% FBS, 40 uM, read-out: Firefly, pGL4, 10% FBS, cmpd/DMSO (mean)): 3.9
fold induction at 0.5 µM [4, 5]: 1.1
fold induction at 2 µM [4, 5]: 1.2
fold induction at 10 µM [4, 5]: 1.6
fold induction at 40 µM [4, 5]: 1.6
fold induction at 0.5 µM [4, 6]: 1.2
fold induction at 2 µM [4, 6]: 1.2
fold induction at 10 µM [4, 6]: 1.5
fold induction at 40 µM [4, 6]: 1.8
fold induction at 0.5 µM [4, 7]: 1
fold induction at 2 µM [4, 7]: 1.1
fold induction at 10 µM [4, 7]: 1.7
fold induction at 40 µM [4, 7]: 2.8
